Holding throughout (test): NCI tumour cell line growth inhibition, 48 h
Assay [1] relates to SW-620 colon.
Assay [2] deals with EKVX NSCLC.
In assay [3] the test system is NCI-H460 lung.
Assay [4] relates to COLO 205 colon.
Assay [5] relates to MDA-N.
Assay [6] concerns SF-539 CNS.
Assay [7] relates to NCI-H522 lung.
Assay [8] relates to SR leukemia.
In assay [9] the test system is T-47D breast.
Assay [10] deals with UACC-257 melanoma.

Several values for one entry are separate records, joined by “and”; a condition that tells them apart may be missing. Equal values may be shown once.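 Dose response: 5 concentrations. Exposure: 48 h. Format: 96-well plates. Endpoint: linear interpolation; highest concentration if not reached. GI50 = concentration required for 50% inhibition of growth. TGI: concentration producing complete growth inhibition.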

As for `Nc1nc(Cl)cc(NC23CC4CC(CC(C4)C2)C3)n1`, the TGI in assay [1], in [2], in assay [3], in assay [4], in assay [5] and in [6] was over 100 µM each time. Moreover, the TGI in assay [7], in assay [8], in assay [9] and in assay [10] was over 100 µM throughout.
For the compound `CN(C)CCCNc1ccc2nnn3c4ccc(O)cc4c(=O)c1c23`, the TGI in assay [1] came to 17.2 µM; in [2], 25.3 µM; in [3], 14.1 µM; in assay [4], 15.8 µM; in assay [5] it was 19.9 µM; in [6], 19.6 µM. Besides, the TGI in assay [7] worked out at 19.8 µM; in [8] it was 3.61 µM; in [9], 40.9 µM; in [10], 29.8 µM.
Take `COc1cc(C2C(Cl)C(=O)N2c2c(C)n(C)n(-c3ccccc3)c2=O)ccc1O` (stereo not given): the TGI came out at 36.4 µM in [1]; 70.2 µM in assay [2]; 59.7 µM in assay [3]; 34.3 µM in assay [4]; 32.6 µM in [5]; 39.4 µM in assay [6]. Besides, the TGI is 31 µM in [7], 58.6 µM in assay [8], over 100 µM in assay [9] and 40.7 µM in assay [10].
For `O=C1c2c(O)cccc2-c2nn(CCNCCO)c3ccc(NCCNCCO)c1c23`, the TGI came to 7.09 µM in [1]; 4.8 µM in assay [2]; 0.934 µM in [3]; 1.67 µM in assay [4]; 1.94 µM in assay [5]; 1.1 µM in assay [6]. For the same compound, the TGI in assay [7] was 0.164 µM; in assay [8] it was 3 µM; in assay [9], 4.61 µM; in assay [10], 5.69 µM.
Consider `CCN(CC)C(=S)SS(=O)(=O)c1cccc(N)c1`, for which the TGI in assay [1], in assay [2], in assay [3], in assay [4], in assay [5] and in assay [6] was over 100 µM each time. In addition, the TGI in assay [7], in [8], in assay [9] and in [10] was over 100 µM throughout.
As to `NNC(=O)C1(NC(=O)c2ccccc2)C(c2ccccc2)C(c2ccccc2)=NN1c1ccccc1` (stereo not given), the TGI in assay [1] was over 100 µM; in assay [2] it was over 100 µM; in assay [3], over 100 µM; in assay [4], over 100 µM; in assay [5], 57.9 µM; in assay [6] it was over 100 µM. Further, the TGI was over 100 µM in assay [7], 65.6 µM in assay [8], over 100 µM in assay [9] and over 100 µM in assay [10].
Turning to `O=C(c1cccs1)N1CCN(C(=O)c2cccs2)C1=S`, the TGI in assay [1] came out at 24.6 µM; in [2], 27.8 µM; in [3], 19.1 µM; in assay [4], 22.4 µM; in assay [5], 14.8 µM; in assay [6], 4.84 µM. Moreover, the TGI in [7] is 35.8 µM; in assay [8] it was over 100 µM; in [9], 23.8 µM; in [10], 22.9 µM.
For the compound `CC1=C2C(=CO[C@H](C)[C@H]2C)C(=O)C(C(=O)O)=C1O`, the GI50 in [1] is 26.9 µM; in assay [2], 28.9 µM; in assay [3], 30.1 µM and 73 µM; in assay [4] it was 22.1 µM; in assay [6], 23.9 µM; in assay [7], 18.5 µM. In addition, the TGI in assay [1] was > 74.5 µM and 77.4 µM; in [2], 83.6 µM and 63.2 µM; in [3], > 90.1 µM and 149 µM; in [4], 77.3 µM and 45.8 µM; in assay [5] it was 72.2 µM; in [6], 30.3 µM and 59.2 µM. Moreover, the TGI in assay [7] was 36.4 µM and 34.4 µM; in assay [8], 66.7 µM; in assay [9], over 94.5 µM; in assay [10] it was over 87.8 µM.
As to `COc1cc(C2c3cc4c(cc3C3OC[C@@H]2C3CO)OCO4)cc(OC)c1OC` (stereo not given in full), the TGI was over 100 µM in assay [1]; over 100 µM in assay [2]; 47.8 µM in assay [3]; 33.6 µM in [4]; 36.1 µM in assay [5]; 37.3 µM in [6]. Also, the TGI was 47.8 µM in [7], over 100 µM in assay [8], over 100 µM in [9] and 76.5 µM in assay [10]. Also, the GI50 in [6] was 17.7 µM.
Take `CN1C(=O)C(O)C[C@@H]1c1ccccc1` (stereo not given in full): the TGI in assay [1], in assay [2], in assay [4], in [5], in assay [6] and in assay [7] was over 100 µM in each case. Moreover, the TGI in [8], in assay [9] and in assay [10] was over 100 µM in each case.
Regarding `CCCSc1ccc2[nH]c(N3C(=O)/C(=C/c4ccccc4)N=C3c3ccccc3)cc2c1`, the TGI is over 50 µM in assay [1]; over 50 µM in assay [2]; 24.6 µM in assay [4]; 20.1 µM in assay [5]; over 50 µM in assay [6]; 36 µM in assay [7]. In addition, the TGI in assay [8], in assay [9] and in assay [10] was over 50 µM each time.
